Assay: Biodistribution studies in ICR white mice: percent of injected dose of Tc-99m complex in brain tissue
Type: in vivo
Conditions: for % of Dose of Tc99m Complex in Brain, 5 min / % of Dose of Tc99m Complex in Brain, 15 min / % of Dose of Tc99m Complex in Brain, 10 min: ICR white mice, i.v. (tail), 0.5 to 2 microcuries, saline
Protocol: Biodistribution studies have been conducted with several complexes according to the present invention, in ICR white mice. A saline solution containing 0.5 to 2 microcuries of the Tc-99m complex was injected intravenously (tail), and the mice were sacrificed after 5, 10 or 15 minutes. The percent of the injected dose which was present in brain tissue was measured. […] On the other hand, the data reveal that the compounds containing the alkyl-amino group according to the present invention are retained in the brain for much longer times. For example, after 15 minutes, the concentration of compound 3 is 15 times that of compound 1.

concentration in brain relative to that of compound 1 (after 15 minutes, mice, i.v., relative to compound 1) [times]	Structure (SMILES)	% of Dose of Tc99m Complex in Brain, 5 min	% of Dose of Tc99m Complex in Brain, 15 min	% of Dose of Tc99m Complex in Brain, 10 min
–	CC(C)(S)CNC(C)(C)CN(CCN1CCCCC1)CC(C)(C)S [Compound 9]	2.19 % of Dose	1.01 % of Dose	–
–	CC(C)(S)CNCCNCC(C)(C)S [Compound 1, reference compound]	1.02 % of Dose	0.03 % of Dose	0.30 % of Dose
15	CC(C)NCCN(CCNCC(C)(C)S)CC(C)(C)S [Compound 3]	0.64 % of Dose	0.49 % of Dose	0.49 % of Dose
–	CN(C)CCN(CCNCC(C)(C)S)CC(C)(C)S [Compound 2]	0.89 % of Dose	0.42 % of Dose	0.30 % of Dose

From patent US4638051A, “Brain imaging radiopharmaceuticals” (The Johns Hopkins University, priority 1985, dated 1987)
